In patent publication US20230109697A1, “COMBINED ANTI-CYTOKINE THERAPY TO REDUCE METASTATIC CANCER” (The Board of Trustees of the Leland Stanford Junior …, priority 2020, published 2023):

What was measured:
CCR2 chemokine receptor = target: T1, CCR2 chemokine receptor (Homo sapiens, UniProt P41597); settings: cited from earlier work
T1 construct: endogenous in cells; host or cells: THP-1

[1] = test system: non-polarized macrophages; experiment: Macrophage polarization by qPCR, MYC-HCC conditioned medium with recombinant cytokines; assay type: cell-based, mouse; settings: recombinant cytokine added to cultured MYC-HCC cells
Experimental: FIG. 11. a. Quantification of migration of macrophages treated with MYC- or MYC/Twist1 -cells conditioned media. b. Expression of M1 marker genes in macrophages treated with conditioned media from MYC-HCC or MYC/Twist1-HCC. c. Spheroid co-culture assay of MYC/Twist1 -cells and macrophages after treatment with either CCL2 antibody or control antibody. F4/80 staining was performed to quantify number of spheroids with macrophage infiltration (*p<0.05). d. Experimental scheme- Conditioned medium of MYC-HCC cells treated with PBS or recombinant IL13 or CCL2 respectively was added to non-polarized macrophages for 48 hours. Macrophage polarization was assessed by qPCR for M2 markers (ARG1, […]) and M1 markers (IFNAR2, CCR2) (**p<0.005).
Quantitative Real-Time PCR: RNA was isolated using RNeasy plus mini kit according to the manufacturer’s instructions (Qiagen). cDNA was synthesized using SuperScript III (ThermoFisher). qPCR was performed using specific primers (Supplemental Table 1) and SYBR Green (Roche) in an Applied Biosystems Real Time PCR System (Life Technologies). Data were normalized to UBC. A minimum of 3 biological and 3 technical replicates were used for all qPCR experiments.

MYC-HCC = experiment: Orthotopic MYC-HCC transplant in NSG mice treated with recombinant cytokines; assay type: in vivo, mouse; settings: for macrophage infiltration increase: IHC staining for F4/80; for metastases (FC): single cytokine vs control, 4 weeks
Experimental: FIG. 5 Both CCL2 and IL13 are required to promote Twist1-driven metastasis. a. Experimental scheme- Mice orthotopically transplanted with MYC-HCC cells were treated either with PBS or IL13 or CCL2 or CCL2+IL13 recombinant cytokines for 4 weeks. b. Representative histopathology of lung sections from MYC-HCC bearing mice treated with PBS or CCL2+IL13. c. Histopathology of liver ([…]) of MYC-HCC bearing mice treated with PBS or CCL2 or IL13 or CCL2+IL13 and IHC for F4/80 and MYC expression in each group. d. Quantification of number of metastatic nodules in the liver control treated or recombinant cytokine treated MYC-HCC bearing mice. (**p<0.01). e. Quantification of macrophage infiltration in liver by IHC staining for F4/80 of MYC-HCC bearing mice liver treated with PBS or CCL2 or IL13 or CCL2+IL13. f. Histopathology of lung (1X and 20X) of MYC-HCC bearing mice treated with PBS or CCL2 or IL13 or CCL2+IL13 and IHC for F4/80 and MYC expression in each group. g. Quantification of number of metastatic nodules in the lung of control treated or recombinant cytokine treated MYC-HCC bearing mice. (**p<0.01). h. Quantification of macrophage infiltration in lung by IHC staining for F4/80 of MYC-HCC bearing mice liver treated with PBS or CCL2 or IL13 or CCL2+IL13.
Orthotopic transplantation assay: An orthotopic mouse model was established by transplanting mouse MYC- or MYC/Twist1-HCC tumors (1 mm^3) under the liver capsule of NOD/Scid/Gamma (NSG) recipient mice. Bioluminescent (BLI) and MRI scans monitoring are used to monitor tumor engraftment and growth. Mice are euthanized once predetermined specific endpoints are met or based on morbidity whichever occurs first.
in vivo treatment mouse models: For antibody treatment, mice were injected i.p. with isotype control IgG or anti-CCL2 (BioXcell), -IL13 and -IL4 (Genentech) antibody (10 mg/kg body weight three times per week). For recombinant cytokines treatment, mice were injected i.p. three times per week with PBS or CCL2 (Peprotech, 500 ng/mouse), IL13 and IL4 (Peprotech, 250 ng/mouse). For clodronate liposomes (CL) treatment, CL or control liposomes were administered i.p. at 6.5 µl/g body weight 3 times per week to NSGs mice. CL and control treatments were administered to NSG mice previously injected i.v. with 0.5×10^6 MYC/twist1-HCC cells or orthotopically transplanted with MYC/Twist1-HCC tumors. Experimental and control mice were killed 4 weeks after tumor were transplanted. Primary tumors and lung metastases were collected for H&E staining and IHC.

T1 sequence (P41597 whole entry): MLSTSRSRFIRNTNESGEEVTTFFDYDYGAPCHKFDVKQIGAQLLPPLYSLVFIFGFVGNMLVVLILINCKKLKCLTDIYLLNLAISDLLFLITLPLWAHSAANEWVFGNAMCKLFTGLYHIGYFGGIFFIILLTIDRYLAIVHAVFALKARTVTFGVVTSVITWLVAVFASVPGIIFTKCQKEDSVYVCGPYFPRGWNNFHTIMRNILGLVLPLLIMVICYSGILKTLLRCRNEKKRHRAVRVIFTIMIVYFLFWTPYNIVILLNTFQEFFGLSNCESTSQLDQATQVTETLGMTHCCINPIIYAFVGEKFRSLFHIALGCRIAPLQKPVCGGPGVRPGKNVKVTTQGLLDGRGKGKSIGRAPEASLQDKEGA

Row | Molecule | IC50 (CCR2 chemokine receptor; THP-1 cell line, pre-clinical studies, read-out: IC50, inhibition of MCP-1 induced calcium mobilization and chemotaxis) [nM] | selectivity for CCR2 (CCR2 chemokine receptor) [fold] | M2 marker expression [1] | macrophage infiltration increase (MYC-HCC) | metastases (FC) (MYC-HCC) | effect on metastasis (MYC-HCC; mouse, in vivo)
1 | CC(C)(C)N1CCN[C@@H](C(=O)N2CCN(C(=O)Nc3ccc(Cl)c(F)c3)CC2)C1 [AZD2423] | 4 | > 500 |  |  |  | 
2 | CCL2: recombinant cytokine CCL2 (Peprotech) |  |  | not | 1.8 fold | 3 | 
3 | IL13: recombinant cytokine IL13 (Peprotech) |  |  | increased M2 marker expression | did not increase macrophage infiltration | 1 | 
4 | recombinant IL4: recombinant cytokine IL4 (Peprotech), control (protein, UniProt P05112 25-153, looked up) Interleukin-4: HKCDITLQEIIKTLNSLTEQKTLCTELTVTDIFAASKNTTEKETFCRAATVLRQFYSHHEKDTRCLGATAQQFHRHKQLIRFLKRLDRNLWGLAGLNSCPVKEANQSTLENFLERLKTIMREKYSKCSS |  |  |  | did not elicit macrophage recruitment |  | did not elicit macrophage recruitment or increase metastasis
